Reference: patent publication US12692261B2, “Substituted heterocyclic compounds and therapeutic uses thereof” (Bayer Aktiengesellschaft, priority 2020, dated 2026)
Like-named read-outs stand apart in the source and are kept apart here.

Assays:
Assay type in all cases: biochemical
[1] = target: T1, full-length human CSNK1A1 (Homo sapiens, UniProt P48729); experiment: CSNK1A1 Assay 2 (ADP-Glo, 1 μM ATP, substrate biotin-Ahx-KRRRAL-pS-VASLPGL); settings: Table 3, read-out: CSNK1A1 Assay 2 IC50 [mol/l] (median)
T1 construct: N-terminal Glutathion-S-Transferase (GST) and full-length human CSNK1A1; purchased Life Technologies PV4174; host or cells: baculovirus infected insect cells
Method: CSNK1A1-inhibitory activity of compounds of the present invention in presence of 1 μM adenosine-tri-phosphate (ATP) was quantified employing the CSNK1A1 assay as described in the following paragraphs. In essence, the enzyme activity is measured by quantification of the adenosine-di-phosphate (ADP), which is generated as a co-product of the enzyme reaction, via the “ADP-Glo™ Kinase Assay” kit from the company Promega. This detection system works as follows: In a first step the ATP not consumed in the kinase reaction is quantitatively converted to cAMP employing an adenylate cyclase (“ADP-Glo-reagent”), then the adenylate cyclase is stopped and the ADP generated in the kinase reaction converted to ATP which generates in a luciferase-based reaction a glow-luminescence signal (“Kinase Detection Reagent”).
(§1) Recombinant fusion protein of N-terminal Glutathion-S-Transferase (GST) and full-length human CSNK1A1, expressed by baculovirus infected insect cells and purified via Glutathion affinity chromatography, was purchased from Life Technologies (product no. PV4174) and used as enzyme. As substrate for the kinase reaction the biotinylated peptide biotin-Ahx-KRRRAL-pS-VASLPGL (C-terminus in amide form) was used which can be purchased e.g. from the company Biosyntan (Berlin-Buch, Germany).
For the assay 50 nl of a 100 fold concentrated solution of the test compound in DMSO was pipetted into a white 1536-well microtiter plate (Greiner Bio-One, Frickenhausen, Germany), 2 μL of a solution of CSNK1A1 in aqueous assay buffer [50 mM HEPES pH 7.5, 10% (v/v) glycerol, 10 mM MgCl2, 50 mM NaCl, 1 mM dithiothreitol, 0.01% (w/v) bovine serum albumin, 0.01% (v/v) Triton X-100] were added and the mixture was incubated for 15 min at 22° C. to allow pre-binding of the test compounds to the enzyme before the start of the kinase reaction. […] The concentration of CSNK1A1 was adjusted depending of the activity of the enzyme lot and was chosen appropriate to have the assay in the linear range, a typical concentrations are about 0.0375 ng/μL. The reaction was stopped by the addition of 2.5 μL of “ADP-Glo-reagent” (1:1.5 fold diluted with water) and the resulting mixture was incubated at 22° C. for 1 h to convert the ATP not consumed in the kinase reaction completely […]. Subsequently 2.5 μL of the “kinase detection reagent” (1.2 fold more concentrated than recommended by the producer) were added, the resulting mixture was incubated at 22° C. for 1 h and then the luminescence measured with a suitable measurement instrument (e.g. Viewlux™ from Perkin-Elmer). The amount of emitted light was taken as a measure for the amount of ADP generated and thereby for the activity of the CSNK1A1.

[2] = target: T1, full-length human CSNK1A1; experiment: CSNK1A1 High ATP Assay (ADP-Glo, 1 mM ATP); settings: Table 3, read-out: CSNK1A1 high ATP assay IC50 [mol/l] (median);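 also: 30 min kinase reaction at 22 °C with 100 µM peptide substrate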
Method: CSNK1A1-inhibitory activity of compounds of the present invention in presence of 1 mM adenosine-tri-phosphate (ATP) was quantified employing the CSNK1A1-high-ATP-assay as described in the following paragraphs. In essence, the enzyme activity is measured by quantification of the adenosine-di-phosphate (ADP), which is generated as a co-product of the enzyme reaction, via the “ADP-Glo™ Kinase Assay” kit from the company Promega. This detection system works as follows: In a first step the ATP not consumed in the kinase reaction is quantitatively converted to cAMP employing an adenylate cyclase (“ADP-Glo-reagent”), then the adenylate cyclase is stopped and the ADP generated in the kinase reaction converted to ATP which generates in a luciferase-based reaction a glow-luminescence signal (“Kinase Detection Reagent”).
as §1
For the assay 50 nl of a 100 fold concentrated solution of the test compound in DMSO was pipetted into a white low volume 384-well microtiter plate (Greiner Bio-One, Frickenhausen, Germany), 2 μL of a solution of CSNK1A1 in aqueous assay buffer [50 mM HEPES pH 7.5, 10% (v/v) glycerol, 10 mM MgCl2, 50 mM NaCl, 1 mM dithiothreitol, 0.01% (w/v) bovine serum albumin, 0.01% (v/v) Triton X-100] were added and the mixture was incubated for 15 min at 22° C. to allow pre-binding of the test compounds to the enzyme before the start of the kinase reaction. […] The concentration of CSNK1A1 was adjusted depending of the activity of the enzyme lot and was chosen appropriate to have the assay in the linear range, a typical concentration is about 0.4 ng/μL. The reaction was stopped by the addition of 2.5 μL of “ADP-Glo-reagent” (1:1.5 fold diluted with water) and the resulting mixture was incubated at 22° C. for 1 h to convert the ATP not consumed in the kinase reaction completely […]. Subsequently 2.5 μL of the “kinase detection reagent” (1.2 fold more concentrated than recommended by the producer) were added, the resulting mixture was incubated at 22° C. for 1 h and then the luminescence measured with a suitable measurement instrument (e.g. Viewlux™ from Perkin-Elmer). The amount of emitted light was taken as a measure for the amount of ADP generated and thereby for the activity of the CSNK1A1.

[3] = target: T2, wild-type Epidermal Growth Factor Receptor (EGFR) (Homo sapiens, UniProt P00533); experiment: WT-EGFR Kinase Assay (TR-FRET, 2 mM ATP)
T2 construct: a fragment of human EGFR (amino acids R669 to A1210); made in house; host or cells: Sf9 insect cells
Excerpt: Inhibitory activity of compounds of the present invention against wild-type Epidermal Growth Factor Receptor (EGFR) was quantified employing the TR-FRET based EGFR assay as described in the following paragraphs.
Recombinant fusion protein of N-terminal Glutathion-S-Transferase (GST) and a fragment of human EGFR (amino acids R669 to A1210), expressed in Sf9 insect cells and purified via affinity chromatography using Glutathion Sepharose as described above, was used as kinase. As substrate for the kinase reaction the biotinylated peptide biotin-Ahx-[…] (C-terminus in amide form) was used which can be purchased e.g. form the company Biosynthan GmbH (Berlin-Buch, Germany).
For the assay 50 nl of a 100 fold concentrated solution of the test compound in DMSO was pipetted into either a black low volume 384 well microtiter plate or a black 1536 well microtiter plate (both Greiner Bio-One, Frickenhausen, Germany), 2 μL of a solution of EGFR in aqueous assay buffer [50 mM Hepes pH 7.0, 10 mM MgCl2, 1 mM dithiothreitol, 0.5 mM EGTA, 0.3 mM activated sodium ortho-vanadate, 0.005% (w/v) bovine serum albumin, 0.005% (v/v) Tween-20] were added and the mixture was incubated for 15 min at 22° C. to allow pre-binding of the test compounds to the enzyme before the start of the kinase reaction. […] The concentration of EGFR was adjusted depending of the activity of the enzyme lot and was chosen appropriate to have the assay in the linear range, typical concentration was 7.6 pg/μL. The reaction was stopped by the addition of 3 μL of a solution of HTRF detection reagents (83.3 nM streptavidine-XL665 [Cisbio Bioassays, Codolet, France] and 1.67 nM PT66-Tb-Cryptate, a terbium-cryptate labelled anti-phospho-tyrosine antibody from Cisbio Bioassays [instead of the PT66-Tb-cryptate PT66-Eu-Chelate from Perkin Elmer can also be used]) in an aqueous EDTA-solution (133.3 mM EDTA, 0.2% (w/v) bovine serum albumin in 50 mM HEPES pH 7.5).
The resulting mixture was incubated 1 h at 22° C. to allow the binding of the biotinylated phosphorylated peptide to the streptavidine-XL665 and the PT66-Tb-Cryptate. Subsequently the amount of phosphorylated substrate was evaluated by measurement of the resonance energy transfer from the PT66-Tb-Cryptate to the streptavidine-XL665. Therefore, the fluorescence emissions at 620 nm and 665 nm after excitation at 337 nm were measured in a HTRF reader, e.g. a Pherastar (BMG Labtechnologies, Offenburg, Germany) or a Viewlux (Perkin-Elmer). The ratio of the emissions at 665 nm and at 622 nm was taken as the measure for the amount of phosphorylated substrate.

[4] = EGFR Wildtyp 2 mM ATP IC50 [mol/l] (median), Table 4

T1 sequence (P48729 whole entry): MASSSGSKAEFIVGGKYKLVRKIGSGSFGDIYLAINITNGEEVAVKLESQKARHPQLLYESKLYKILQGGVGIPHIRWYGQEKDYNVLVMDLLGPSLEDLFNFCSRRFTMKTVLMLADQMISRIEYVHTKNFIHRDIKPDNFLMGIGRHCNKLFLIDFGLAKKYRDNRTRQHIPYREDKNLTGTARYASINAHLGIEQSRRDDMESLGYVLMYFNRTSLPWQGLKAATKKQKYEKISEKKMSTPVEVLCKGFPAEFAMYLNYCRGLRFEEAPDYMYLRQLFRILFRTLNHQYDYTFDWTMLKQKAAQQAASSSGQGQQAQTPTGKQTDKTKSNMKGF
T2 sequence (P00533 669-1210): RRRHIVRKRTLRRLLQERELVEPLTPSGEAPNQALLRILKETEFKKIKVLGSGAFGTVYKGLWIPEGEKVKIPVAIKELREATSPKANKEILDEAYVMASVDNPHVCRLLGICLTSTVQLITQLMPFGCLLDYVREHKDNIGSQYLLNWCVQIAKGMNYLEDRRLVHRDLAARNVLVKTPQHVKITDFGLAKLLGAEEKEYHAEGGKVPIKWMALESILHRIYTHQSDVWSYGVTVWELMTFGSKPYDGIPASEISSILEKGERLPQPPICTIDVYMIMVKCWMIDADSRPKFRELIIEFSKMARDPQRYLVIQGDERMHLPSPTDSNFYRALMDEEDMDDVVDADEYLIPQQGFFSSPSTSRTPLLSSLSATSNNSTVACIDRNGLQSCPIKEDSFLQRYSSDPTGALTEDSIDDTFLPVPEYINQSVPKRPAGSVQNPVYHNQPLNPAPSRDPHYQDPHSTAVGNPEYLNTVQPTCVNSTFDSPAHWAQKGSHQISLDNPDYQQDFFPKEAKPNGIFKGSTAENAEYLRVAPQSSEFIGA

`O=C(Nc1cc(-c2[nH]c3c(OCC(F)F)ccnc3c2-c2ccccn2)ccn1)C(CC(F)F)c1ccc(F)cc1` (racemic) [Example 75, (2RS)—N-{4-[7-(2,2-difluoroethoxy)-3-(pyridin-2-yl)-1H-pyrrolo[3,2-b]pyridin-2-yl]pyridin-2-yl}-4,4-difluoro-2-(4-fluorophenyl)butanamide] showed an IC50 [1] of 4.37 nM, an IC50 [2] of 4.37 nM and an IC50 [3, 4] of over 20000 nM.
`O=C(Nc1cc(-c2[nH]c3c(OCC(F)F)ccnc3c2-c2ccccn2)ccn1)C(CC(F)F)c1ccc(F)cc1` (single isomer, unassigned) [Example 76, (2R or S)—N-{4-[7-(2,2-difluoroethoxy)-3-(pyridin-2-yl)-1H-pyrrolo[3,2-b]pyridin-2-yl]pyridin-2-yl}-4,4-difluoro-2-(4-fluorophenyl)butanamide] showed an IC50 [1] of 2.94 nM, an IC50 [2] of 2.94 nM and an IC50 [3, 4] of over 20000 nM.
`O=C(Nc1cc(-c2[nH]c3c(OCC(F)F)ccnc3c2-c2ccccn2)ccn1)C(CC(F)F)c1ccc(F)cc1` (single isomer, unassigned) [Example 77, (2R or S)—N-{4-[7-(2,2-difluoroethoxy)-3-(pyridin-2-yl)-1H-pyrrolo[3,2-b]pyridin-2-yl]pyridin-2-yl}-4,4-difluoro-2-(4-fluorophenyl)butanamide] was tested, and the IC50 [1] was 7.2 nM, the IC50 [2] was 7.2 nM and the IC50 ([3]; read-out: EGFR Wildtyp 2 mM ATP IC50 [mol/l] (median), Table 4) was over 20000 nM.
